Where a name gives a salt, the structure may show the parent alone.

A word on the melting point: it is the temperature, or range, at which the solid turns liquid. Take `O=C(CN1CCN(c2ccc(C(F)(F)F)cn2)C(=O)C1)N1CCc2oc(-c3ccccc3)nc2C1` [compound 83, 4-[2-oxo-2-(2-phenyl-6,7-dihydro-4H-oxazolo[4,5-c]pyridin-5-yl)ethyl]-1-(5-trifluoromethylpyridin-2-yl)piperazin-2-one]: the melting point fell in the range of 140 to 142 °C.

The compound `C[C@@H]1CN(c2ccc(C(=O)O)cn2)C[C@H](C)N1CC(=O)N1CCc2c(cnn2C(C)(C)C)C1` [compound 93, 6-{(3S,5R)-4-[2-(1-tert-butyl-1,4,6,7-tetrahydropyrazolo[4,3-c]pyridin-5-yl)-2-oxoethyl]-3,5-dimethylpiperazin-1-yl}nicotinic acid] came in with a melting point of 150 to 151 °C.

Compound `O=C(CN1CC2CCC(C1)N2c1ccc(C(F)(F)F)cn1)N1CCc2nn(-c3ccccc3)cc2C1` came in with a melting point of 212 to 213 °C.

Compound `C[C@@H]1CN(c2cccnc2)C[C@H](C)N1CC(=O)N1CCc2nc(-c3ccccc3)[nH]c2C1` [compound 145, 2-((2S,6R)-2,6-dimethyl-4-pyridin-3-ylpiperazin-1-yl)-1-(2-phenyl-3,4,6,7-tetrahydroimidazo[4,5-c]pyridin-5-yl)ethanone] registered a melting point of 207 to 209 °C.

In the case of `N#Cc1ccc(N2C3CCC2CN(CC(=O)N2CCc4nc(-c5ccc(F)cc5)sc4C2)C3)nc1`, the melting point is 212 to 213 °C.

Consider `CCn1cc2c(n1)CCN(C(=O)CN1CCN(c3ccc(C(F)(F)F)cn3)C(=O)C1)C2` [compound 148, 4-[2-(2-ethyl-2,4,6,7-tetrahydropyrazolo[4,3-c]pyridin-5-yl)-2-oxoethyl]-1-(5-trifluoromethylpyridin-2-yl)piperazin-2-one], for which the melting point lay in the range of 151 to 152 °C.

`O=C(CN1CC2CC1CN2c1ccc(C(F)(F)F)cn1)N1CCc2nn(-c3ccccc3)cc2C1` (centres unmarked) [compound 127, 1-(2-phenyl-2,4,6,7-tetrahydropyrazolo[4,3-c]pyridin-5-yl)-2-[5-(5-trifluoromethylpyridin-2-yl)-2,5-diazabicyclo[2.2.1]hept-2-yl]ethanone] yielded a melting point of 174 to 175 °C.

For `C[C@@H]1CN(c2ccc(C(F)(F)F)nc2)C[C@H](C)N1CC(=O)N1CCc2nn(-c3ccccc3)cc2C1` [compound 20, 2-[(2S,6R)-2,6-dimethyl-4-(6-trifluoromethylpyridin-3-yl)piperazin-1-yl]-1-(2-phenyl-2,4,6,7-tetrahydropyrazolo[4,3-c]pyridin-5-yl)ethanone], the melting point is 174 to 175 °C.

`C[C@@H]1CN(CC(=O)N2CCc3nc(-c4ccccc4)sc3C2)[C@@H](C)CN1c1ccc(C(=O)O)cn1` [compound 63, 6-{(2R,5S)-2,5-dimethyl-4-[2-oxo-2-(2-phenyl-6,7-dihydro-4H-thiazolo[5,4-c]pyridin-5-yl)ethyl]piperazin-1-yl}nicotinic acid]: the melting point was in the range of 220 to 221 °C.

In the case of `C[C@@H]1CN(c2ncc(C(=O)O)cn2)C[C@H](C)N1CC(=O)N1CCc2nc(-c3ccccc3)sc2C1` (as salt: sodium) [compound 72, 2-{(3S,5R)-3,5-dimethyl-4-[2-oxo-2-(2-phenyl-6,7-dihydro-4H-thiazolo[5,4-c]pyridin-5-yl)ethyl]piperazin-1-yl}pyrimidine-5-carboxylic acid], the melting point was in the range of 269 to 272 °C.

In the case of `O=C(CN1CCN(c2ccc(C(F)(F)F)cn2)C(=O)C1)N1CCc2nc(-c3ccccc3)oc2C1` [compound 96, 4-[2-oxo-2-(2-phenyl-6,7-dihydro-4H-oxazolo[5,4-c]pyridin-5-yl)ethyl]-1-(5-trifluoromethylpyridin-2-yl)piperazin-2-one], the melting point worked out at 175 °C.

`O=C(CN1CC2CCC(C1)N2c1ccc(C(F)(F)F)cn1)N1CCc2nc(-c3ccc(F)cc3)[nH]c2C1` came in with a melting point of 148 to 150 °C.

`O=C(CN1CC2CCC(C1)N2c1ncc(F)cn1)N1CCc2c(cnn2-c2ccc(F)cc2)C1` showed a melting point of 151 to 152 °C.

Turning to `Cn1nnc(-c2ccc(N3C4CCC3CN(CC(=O)N3CCc5nn(-c6ccccc6)cc5C3)C4)nc2)n1`, the melting point lay in the range of 230 to 231 °C.

Source of the values: US8580790B2, “(Heterocycle/condensed piperidine)-(piperazinyl)-1-alkanone or (heterocycle/condensed pyrrolidine)-(piperazinyl)-1-alkanone derivatives and use thereof as p75 inhibitors” (Sanofi, priority 2009, dated 2013).
